Assay results from patent publication US8008461B2, “Carbonyl reductase, gene therefor and use thereof” (Kaneka Corporation, priority 2004, dated 2011).

What follows are compounds tested on purified polypeptide (carbonyl reductase) (assay: Substrate specificity of polypeptide (NADPH-dependent reduction of carbonyl compounds)). Settings: 1 mM substrate, 0.25 mM NADPH, pH 6.5, 30° C.; relative to activity to 3-oxo-3-phenylpropanenitrile.
Format: biochemical, Candida magnoliae strain NBRC0661
Work on `CCC(=O)Cc1ccccc1` [1-phenyl-2-butanone] yielded a Relative activity of 1144%. `CC(=O)c1ccccn1` [2-acetylpyridine] was tested, and the Relative activity was 1926%. In the case of `O=C(O)CC(=O)C(=O)O` [oxalacetic acid], the Relative activity is reported as 421%. For `O=C(CO)c1ccccc1` [2-hydroxyacetophenone], the Relative activity was 1806%. Compound `CC(=O)c1ccc(Cl)cc1` [p-chloroacetophenone] has a Relative activity of 2347%. `CCOC(=O)CC(=O)c1ccccc1` [ethyl benzoylacetate] showed a Relative activity of 7704%. In the case of `CCC(=O)C(=O)O` [2-keto-n-butyric acid], the Relative activity is reported as 1866%. With `CC(=O)CC(C)C` [4-methyl-2-pentanone] the Relative activity was 60%. `CCOC(=O)CC(=O)CCl` [ethyl 4-chloroacetoacetate] gave a Relative activity of 8547%. `CCOC(=O)CC(C)=O` [ethyl acetoacetate] gave a Relative activity of 903%. `CC(=O)c1ccncc1` [4-acetylpyridine] was tested, and the Relative activity was 15710%. With `CC(=O)CO` [hydroxyacetone] the Relative activity was 361%. In the case of `CC(=O)CCc1ccccc1` [benzylacetone], the Relative activity is reported as 241%. `CC(=O)c1ccccc1` [acetophenone] gave a Relative activity of 1023%. `CC(=O)c1ccc(C)cc1` [p-methylacetophenone] showed a Relative activity of 542%. Compound `CCC(=O)c1ccccc1` [propiophenone] has a Relative activity of 3010%. In the case of `CC(=O)CC(=O)OCc1ccccc1` [benzyl acetoacetate], the Relative activity is reported as 4936%. In the case of `CC(=O)C1CC1` [cyclopropyl methyl ketone], the Relative activity is reported as 181%. `O=C(CCl)c1cccc(Cl)c1` [2-chloro-1-(3′-chlorophenyl)ethanone] was tested, and the Relative activity was 10473%. `CCCCCC(C)=O` [2-heptanone] was tested, and the Relative activity was 782%. With `COc1ccc(C(C)=O)cc1OC` [3,4-dimethoxyacetophenone] the Relative activity was 2889%. In the case of `CCC(C)=O` [2-butanone], the Relative activity is reported as 181%. `CC(=O)c1ccc(F)cc1` [p-fluoroacetophenone] was tested, and the Relative activity was 722%. For `CC(=O)c1cccc([N+](=O)[O-])c1` [m-nitroacetophenone], the Relative activity was 5056%. With `N#CCC(=O)c1ccccc1` [3-oxo-3-phenylpropanenitrile] the Relative activity was 100%. Compound `CCCCC(C)=O` [2-hexanone] has a Relative activity of 602%. `CC(=O)c1cccnc1` [3-acetylpyridine] gave a Relative activity of 2107%. For `COC(=O)C(C)=O` [methyl pyruvate], the Relative activity was 9450%. `CC(=O)CCO` [4-hydroxy-2-butanone] showed a Relative activity of 301%.
